The test system of one assay is Primary human T-cells. Description: Primary Human T-Cell Proliferation Assay Stimulated with IL-2 (CellTiter-Glo). Type of assay: cell-based. To be noted: read-out: IC50, Example 42. The method in brief: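 IC50 derived from CellTiter-Glo ATP signal after 72 hours of IL-2-driven proliferation at 37° C. Cells: primary human T-cells from blood, stimulated beforehand 3-4 days on anti-CD3/anti-CD28 with IL-2, then rested from IL-2 before compound exposure in duplicate; IL-2-free wells served as unstimulated control.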
For orientation: ATP-based viability assays read luminescence as a measure of living cells.

Assay [1] relates to IL-4 stimulated expression of CD23 in human Ramos B cells (JAK-1 and JAK-3). Description: Assay for Ramos B-Cell Line Stimulated with IL-4 (CD23 upregulation, FACS). Type of assay: cell-based. To be noted: read-out: IC50, Example 41. The method in brief:
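Log-phase Ramos cells, 1 h compound pre-incubation at 37 °C; IL-4 50 units/mL final, 20-24 h; CD23-PE stain, FACS; IC50.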

The mark [2] stands for this setting: primary human T-cell proliferation stimulated with IL-2.
Setting [3] is: Ramos B-cell line stimulated with IL-4, CD23 expression by FACS.

Structures can show the parent of a compound that is named as a salt. Where two headings read alike, the source gives them in different places.

A word on the IC50: it is the point on the concentration scale where inhibition reaches its midpoint. Consider `CC(C)(Oc1ccc(Nc2nc(Nc3cccc(S(N)(=O)=O)c3)ncc2F)cc1)C(N)=O` [Compound I-126, N4-[4-(1-Aminocarbonyl-1-methyl)ethoxy]phenyl-N2-(3-aminosulfonyl)phenyl-5-fluoro-2,4-pyrimidinediamine], for which the figures for the IC50 (in the assay on Primary human T-cells (setting [2]); in assay [1] (setting [3])) were 610 nM and 355 nM, respectively.
Taken in the same sequence, the figures for `Cc1ccc(Nc2ncc(F)c(Nc3ccc(OC(C)(C)C(N)=O)cc3)n2)cc1S(N)(=O)=O` [Compound I-127, N4-[4-(1-Aminocarbonyl-1-methyl)ethoxy]phenyl-N2-(3-aminosulfonyl-4-methyl)phenyl-5-fluoro-2,4-pyrimidinediamine] were 510 nM and 233 nM.
Taken in the same sequence, the figures for `Cc1ccc(Nc2ncc(F)c(Nc3ccc(OCc4ccccn4)cc3)n2)cc1S(N)(=O)=O` [Compound I-160, N2-(3-Aminosulfonyl-4-methylphenyl)-5-fluoro-N4-[4-(2-pyridinyl)methyleneoxyphenyl]-2,4-pyrimidinediamine] were 248 nM and 130 nM.
The matching figures for `NS(=O)(=O)c1ccc(Nc2ncc(F)c(Nc3ccc(OCc4ccccn4)cc3)n2)cc1` [Compound I-163, N2-(4-Aminosulfonylphenyl)-5-fluoro-N4-[4-(2-pyridinyl)methyleneoxyphenyl]-2,4-pyrimidinediamine]: 439 nM and 177 nM.
`CCN(CC)CCNS(=O)(=O)c1ccc(Nc2ncc(F)c(Nc3ccc(OCc4ccccn4)cc3)n2)cc1` [Compound I-165, N2-[4-(2-N,N-Diethylaminoethyl)aminosulfonylphenyl)-5-fluoro-N4-[4-(2-pyridinyl)methyleneoxyphenyl]-2,4-pyrimidinediamine]: the IC50 in the assay on Primary human T-cells (setting [2]) turned out to be 446 nM; in assay [1] (setting [3]), 245 nM.
Taken in the same sequence, the figures for `CNS(=O)(=O)c1cc(Nc2ncc(F)c(Nc3ccc(-c4ccccn4)c(OCF)c3)n2)ccc1C` [Compound I-173, 5-Fluoro-N2-[3-N-(methyl)aminosulfonyl-4-methylphenyl]-N4-[4-(2-pyridinyl)-3-fluoromethyleneoxyphenyl]-2,4-pyrimidinediamine] were 907 nM and 115 nM.
With `Cc1cnc(Nc2cccc(S(N)(=O)=O)c2)nc1Nc1ccc(OCc2ccccn2)cc1` [Compound I-179, N2-(3-Aminosulfonylphenyl)-5-methyl-N4-[4-(2-pyridinyl)methyleneoxyphenyl]-2,4-pyrimidinediamine], the IC50 in the assay with Primary human T-cells (setting [2]) is 11.8 nM; in assay [1] (setting [3]), 24.3 nM.
The matching figures for `CNS(=O)(=O)c1cc(Nc2ncc(C)c(Nc3ccc(OCc4ccccn4)cc3)n2)ccc1C` [Compound I-180, 5-Methyl-N2-[3-(N-methylaminosulfony)-4-methylphenyl]-N4-[4-(2-pyridinyl)methyleneoxyphenyl]-2,4-pyrimidinediamine]: 28.7 nM and 62.4 nM.
Taken in the same sequence, the figures for `Cc1ccc(Nc2ncc(F)c(Nc3cccc(OCc4cccnc4)c3)n2)cc1S(N)(=O)=O` [Compound I-183, N2-(3-Aminosulfonyl-4-methylphenyl)-5-fluoro-N4-[3-(3-pyridinyl)methyleneoxyphenyl]-2,4-pyrimidinediamine] were 1830 nM and 249 nM.
The matching figures for `CNS(=O)(=O)c1cc(Nc2ncc(F)c(Nc3cccc(OCc4cccnc4)c3)n2)ccc1C` [Compound I-184, 5-Fluoro-N2-[3-(N-methylaminosulfony)-4-methylphenyl]-5-fluoro-N4-[3-(3-pyridinyl)methyleneoxyphenyl]-2,4-pyrimidinediamine]: 2570 nM and 486 nM.
In the case of `CCN(CC)CCNS(=O)(=O)c1ccc(Nc2ncc(F)c(Nc3cccc(OCc4cccnc4)c3)n2)cc1` [Compound I-186, N2-[4-(2-N,N-Diethylaminoethyl)aminosulfonylphenyl)-5-fluoro-N4-[3-(3-pyridinyl)methyleneoxyphenyl]-2,4-pyrimidinediamine], the values for the IC50 (in the assay on Primary human T-cells (setting [2]); in assay [1] (setting [3])) were 1080 nM and 188 nM, respectively.
Taken in the same sequence, the figures for `NS(=O)(=O)c1cccc(Nc2ncc(F)c(Nc3ccc(OCc4cccnc4)cc3)n2)c1` [Compound I-188, N2-(3-Aminosulfonylphenyl)-5-fluoro-N4-[4-(3-pyridinyl)methyleneoxyphenyl]-2,4-pyrimidinediamine] were 64.2 nM and 42.7 nM.
The matching figures for `Cc1ccc(Nc2ncc(F)c(Nc3ccc(OCc4cccnc4)cc3)n2)cc1S(N)(=O)=O` [Compound I-189, N2-(3-Aminosulfonyl-4-methylphenyl)-5-fluoro-N4-[4-(3-pyridinyl)methyleneoxyphenyl]-2,4-pyrimidinediamine]: 143 nM and 137 nM.
Taken in the same sequence, the figures for `CNS(=O)(=O)c1cc(Nc2ncc(F)c(Nc3ccc(OCc4cccnc4)cc3)n2)ccc1C` [Compound I-190, 5-Fluoro-N2-[3-(N-methylaminosulfony)-4-methylphenyl]-5-fluoro-N4-[4-(3-pyridinyl)methyleneoxyphenyl]-2,4-pyrimidinediamine] were 242 nM and 145 nM.
As for `CCN(CC)CCNS(=O)(=O)c1ccc(Nc2ncc(F)c(Nc3ccc(OCc4cccnc4)cc3)n2)cc1` [Compound I-191, N2-[4-(2-N,N-Diethylaminoethyl)aminosulfonylphenyl)-5-fluoro-N4-[4-(3-pyridinyl)methyleneoxyphenyl]-2,4-pyrimidinediamine], the IC50 turned out to be 292 nM in the assay with Primary human T-cells (setting [2]) and 135 nM in assay [1] (setting [3]).
`NS(=O)(=O)c1cccc(Nc2ncc(F)c(Nc3ccc(SCc4cccnc4)cc3)n2)c1` [Compound I-192, N2-(3-Aminosulfonylphenyl)-5-fluoro-N4-[4-(3-pyridinyl)-methylenethiophenyl]-2,4-pyrimidinediamine]: the 50% inhibitory concentration (IC50) with Primary human T-cells (setting [2]) amounted to 155 nM; in assay [1] (setting [3]), 137 nM.
The matching figures for `Cc1ccc(Nc2ncc(F)c(Nc3ccc(OCc4ccncc4)cc3)n2)cc1S(N)(=O)=O` [Compound I-194, N2-(3-Aminosulfonyl-4-methylphenyl)-5-fluoro-N4-[4-(4-pyridinyl)methyleneoxyphenyl]-2,4-pyrimidinediamine]: 99.3 nM and 28.6 nM.
In the case of `NS(=O)(=O)c1cccc(Nc2ncc(F)c(Nc3ccc(OCc4ccccn4)cc3)n2)c1` [Compound I-196, N2-(3-Aminosulfonylphenyl)-5-fluoro-N4-4-[(2-pyridinyl)methyleneoxyphenyl]-2,4-pyrimidinediamine Hydrochloride Salt], the IC50 is 139 nM with Primary human T-cells (primary human T-cell proliferation stimulated with IL-2, Hydrochloride Salt) and 124 nM in assay [1] (Ramos B-cell line stimulated with IL-4, CD23 expression by FACS, Hydrochloride Salt).
For `Cc1cc(COc2ccc(Nc3nc(Nc4ccc(C)c(S(N)(=O)=O)c4)ncc3F)cc2)[nH]n1` [Compound I-197, N2-(3-Aminosulfonyl-4-methylphenyl)-5-fluoro-N4-[4-(3-methyl-(1H)-pyrazol-5-yl)methyleneoxyphenyl]-2,4-pyrimidinediamine], the IC50 came out at 329 nM in the assay with Primary human T-cells (setting [2]) and 135 nM in assay [1] (setting [3]).
For `Cc1cc(COc2ccc(Nc3nc(Nc4ccc(C)c(S(N)(=O)=O)c4)ncc3F)cc2)n(C)n1` [Compound I-198, N2-(3-Aminosulfonyl-4-methylphenyl)-N4-[4-(1,3-dimethyl-(1H)-pyrazol-5-yl)methyleneoxyphenyl]-5-fluoro-2,4-pyrimidinediamine], the IC50 with Primary human T-cells (setting [2]) worked out at 460 nM; in assay [1] (setting [3]), 102 nM.
`Cc1cc(COc2ccc(Nc3nc(Nc4ccc(C)c(S(N)(=O)=O)c4)ncc3F)cc2)n(Cc2ccccc2)n1` [Compound I-199, N2-(3-Aminosulfonyl-4-methylphenyl)-N4-[4-(1-benzyl-3-methyl-(1H)-pyrazol-5-yl)methyleneoxyphenyl]-5-fluoro-2,4-pyrimidinediamine]: the IC50 in the assay on Primary human T-cells (setting [2]) came out at 3030 nM; in assay [1] (setting [3]) it was 240 nM.
Taken in the same sequence, the figures for `Cc1ccc(Nc2nc(Nc3ccc(S(N)(=O)=O)cc3)ncc2F)cc1OCC(=O)N1CCOCC1` [Compound I-209, N2-(4-Aminosulfonylphenyl)-5-fluoro-N4-[4-methyl-3-(2-morpholinocarbonylmethyleneoxy)phenyl]-2,4-pyrimidinediamine] were 4470 nM and 580 nM.
Taken in the same sequence, the figures for `Cc1cc(COc2cccc(Nc3nc(Nc4ccc(C)c(S(N)(=O)=O)c4)ncc3F)c2)no1` [Compound I-214] were 1330 nM and 144 nM.
For the compound `CNS(=O)(=O)c1cc(Nc2ncc(F)c(Nc3ccc(Cn4ccnc4)cc3)n2)ccc1C` [III-85, 5-Fluoro-N2-[3-(N-methylaminosulfony)-4-methylphenyl]-N4-[4-(1-imidazolylmethyl)phenyl]-2,4-pyrimidinediamine hydrochloride], the half-maximal inhibitory concentration (IC50) with Primary human T-cells (primary human T-cell proliferation stimulated with IL-2, hydrochloride) came to 122 nM; in assay [1] (Ramos B-cell line stimulated with IL-4, CD23 expression by FACS, hydrochloride) it was 72.7 nM.
Take `CNS(=O)(=O)c1cc(Nc2ncc(F)c(Nc3ccc(Cn4ccnc4)cc3)n2)ccc1C` [III-86, 5-Fluoro-N2-[3-(N-methylaminosulfony)-4-methylphenyl]-N4-[4-(1-imidazolylmethyl)phenyl]-2,4-pyrimidinediamine dihydrochloride]: the IC50 in the assay on Primary human T-cells (primary human T-cell proliferation stimulated with IL-2, dihydrochloride) came to 93.9 nM; in assay [1] (Ramos B-cell line stimulated with IL-4, CD23 expression by FACS, dihydrochloride), 97.6 nM.
Consider `N#CCn1ccc2cc(Nc3nc(Nc4cccc(S(N)(=O)=O)c4)ncc3F)ccc21` [IX-5, N2-(3-Aminosulfonylphenyl)-N4-(1-cyanomethyleneindol-5-yl)-5-fluoro-2,4-pyrimidinediamine], for which the IC50 is 73.8 nM in the assay on Primary human T-cells (primary human T-cells stimulated with IL-2, proliferation) and 29.6 nM in assay [1] (Ramos B cells stimulated with IL-4, CD23 expression by FACS).

The values above are taken from patent US11827628B2, “Compositions and methods for inhibition of the JAK pathway” (Rigel Pharmaceuticals, Inc., priority 2005, dated 2023).
